Reference: the NIST ThermoML archive (doi:10.1021/je300632p)
Numbers after ± are expanded uncertainties.

Assay: xn = mol fraction of the nth substance listed
Details: 101 kPa, Liquid; for viscosity: Falling or rolling sphere viscometry; for mass density: Vibrating tube method

CCCO [propan-1-ol] + CCO
Details | mass density [kg/m3] | viscosity [mPa·s]
293.15 K, x2 = 0 | 803.58 ± 0.13 | 2.195 ± 0.018
293.15 K, x2 = 0.1 | 802.08 ± 0.13 | 2.034 ± 0.017
293.15 K, x2 = 0.2 | 800.86 ± 0.13 | 1.92 ± 0.016
293.15 K, x2 = 0.301 | 799.68 ± 0.12 | 1.825 ± 0.015
293.15 K, x2 = 0.4 | 798.4 ± 0.12 | 1.684 ± 0.015
293.15 K, x2 = 0.5 | 797.31 ± 0.12 | 1.586 ± 0.014
293.15 K, x2 = 0.599 | 795.87 ± 0.12 | 1.505 ± 0.014
293.15 K, x2 = 0.701 | 794.36 ± 0.12 | 1.408 ± 0.013
293.15 K, x2 = 0.8 | 792.88 ± 0.12 | 1.324 ± 0.012
293.15 K, x2 = 0.9 | 791.44 ± 0.12 | 1.242 ± 0.012
298.15 K, x2 = 0 | 799.59 ± 0.13 | 1.902 ± 0.016
298.15 K, x2 = 0.1 | 798.08 ± 0.13 | 1.81 ± 0.015
298.15 K, x2 = 0.2 | 796.82 ± 0.13 | 1.713 ± 0.015
298.15 K, x2 = 0.301 | 795.65 ± 0.13 | 1.632 ± 0.014
298.15 K, x2 = 0.4 | 794.33 ± 0.13 | 1.511 ± 0.014
298.15 K, x2 = 0.5 | 793.22 ± 0.13 | 1.425 ± 0.013
298.15 K, x2 = 0.599 | 791.75 ± 0.13 | 1.355 ± 0.013
298.15 K, x2 = 0.701 | 790.21 ± 0.13 | 1.272 ± 0.012
298.15 K, x2 = 0.8 | 788.69 ± 0.13 | 1.198 ± 0.012
298.15 K, x2 = 0.9 | 787.22 ± 0.13 | 1.127 ± 0.011
303.15 K, x2 = 0 | 795.58 ± 0.13 | 1.694 ± 0.015
303.15 K, x2 = 0.1 | 794.05 ± 0.13 | 1.615 ± 0.014
303.15 K, x2 = 0.2 | 792.77 ± 0.13 | 1.533 ± 0.014
303.15 K, x2 = 0.301 | 791.57 ± 0.13 | 1.464 ± 0.013
303.15 K, x2 = 0.4 | 790.22 ± 0.13 | 1.359 ± 0.013
303.15 K, x2 = 0.5 | 789.08 ± 0.13 | 1.284 ± 0.012
303.15 K, x2 = 0.599 | 787.59 ± 0.13 | 1.225 ± 0.012
303.15 K, x2 = 0.701 | 786.02 ± 0.13 | 1.152 ± 0.012
303.15 K, x2 = 0.8 | 784.47 ± 0.13 | 1.088 ± 0.011
303.15 K, x2 = 0.9 | 782.96 ± 0.13 | 1.024 ± 0.011
308.15 K, x2 = 0 | 791.53 ± 0.13 | 1.511 ± 0.014
308.15 K, x2 = 0.1 | 789.98 ± 0.13 | 1.446 ± 0.013
308.15 K, x2 = 0.2 | 788.8 ± 0.13 | 1.376 ± 0.013
308.15 K, x2 = 0.301 | 787.45 ± 0.13 | 1.317 ± 0.012
308.15 K, x2 = 0.4 | 786.08 ± 0.13 | 1.225 ± 0.012
308.15 K, x2 = 0.5 | 784.92 ± 0.13 | 1.16 ± 0.012
308.15 K, x2 = 0.599 | 783.4 ± 0.13 | 1.11 ± 0.011
308.15 K, x2 = 0.701 | 781.8 ± 0.13 | 1.046 ± 0.011
308.15 K, x2 = 0.8 | 780.21 ± 0.13 | 0.989 ± 0.011
308.15 K, x2 = 0.9 | 778.67 ± 0.13 | 0.933 ± 0.01
313.15 K, x2 = 0 | 787.44 ± 0.13 | 1.352 ± 0.013
313.15 K, x2 = 0.1 | 785.86 ± 0.13 | 1.297 ± 0.012
313.15 K, x2 = 0.2 | 784.66 ± 0.13 | 1.239 ± 0.012
313.15 K, x2 = 0.301 | 783.29 ± 0.13 | 1.188 ± 0.012
313.15 K, x2 = 0.4 | 781.9 ± 0.13 | 1.107 ± 0.011
313.15 K, x2 = 0.5 | 780.71 ± 0.13 | 1.051 ± 0.011
313.15 K, x2 = 0.599 | 779.16 ± 0.13 | 1.007 ± 0.011
313.15 K, x2 = 0.701 | 777.53 ± 0.13 | 0.952 ± 0.011
313.15 K, x2 = 0.8 | 775.91 ± 0.13 | 0.901 ± 0.01
313.15 K, x2 = 0.9 | 774.33 ± 0.13 | 0.852 ± 0.01
318.15 K, x2 = 0 | 783.3 ± 0.13 | 1.214 ± 0.012
318.15 K, x2 = 0.1 | 781.7 ± 0.13 | 1.167 ± 0.012
318.15 K, x2 = 0.2 | 780.48 ± 0.13 | 1.118 ± 0.011
318.15 K, x2 = 0.301 | 779.09 ± 0.13 | 1.074 ± 0.011
318.15 K, x2 = 0.4 | 777.68 ± 0.13 | 1.003 ± 0.011
318.15 K, x2 = 0.5 | 776.45 ± 0.13 | 0.954 ± 0.011
318.15 K, x2 = 0.599 | 774.88 ± 0.13 | 0.916 ± 0.01
318.15 K, x2 = 0.701 | 773.22 ± 0.13 | 0.867 ± 0.01
318.15 K, x2 = 0.8 | 771.56 ± 0.13 | 0.823 ± 0.01
318.15 K, x2 = 0.9 | 769.95 ± 0.13 | 0.78 ± 0.01
323.15 K, x2 = 0 | 779.11 ± 0.13 | 1.093 ± 0.011
323.15 K, x2 = 0.1 | 777.49 ± 0.13 | 1.053 ± 0.011
323.15 K, x2 = 0.2 | 776.24 ± 0.13 | 1.012 ± 0.011
323.15 K, x2 = 0.301 | 774.83 ± 0.13 | 0.973 ± 0.011
323.15 K, x2 = 0.4 | 773.39 ± 0.13 | 0.911 ± 0.01
323.15 K, x2 = 0.5 | 772.14 ± 0.13 | 0.867 ± 0.01
323.15 K, x2 = 0.599 | 770.54 ± 0.13 | 0.835 ± 0.01
323.15 K, x2 = 0.701 | 768.85 ± 0.13 | 0.792 ± 0.01
323.15 K, x2 = 0.8 | 767.16 ± 0.13 | 0.753 ± 0.01
323.15 K, x2 = 0.9 | 765.52 ± 0.13 | 0.715 ± 0.01
328.15 K, x2 = 0 | 774.86 ± 0.13 | 0.986 ± 0.011
328.15 K, x2 = 0.1 | 773.22 ± 0.13 | 0.953 ± 0.011
328.15 K, x2 = 0.2 | 771.95 ± 0.13 | 0.919 ± 0.01
328.15 K, x2 = 0.301 | 770.52 ± 0.13 | 0.884 ± 0.01
328.15 K, x2 = 0.4 | 769.06 ± 0.13 | 0.829 ± 0.01
328.15 K, x2 = 0.5 | 767.78 ± 0.13 | 0.79 ± 0.01
328.15 K, x2 = 0.599 | 766.15 ± 0.13 | 0.763 ± 0.01
328.15 K, x2 = 0.701 | 764.43 ± 0.13 | 0.725 ± 0.01
328.15 K, x2 = 0.8 | 762.71 ± 0.13 | 0.69 ± 0.009
328.15 K, x2 = 0.9 | 761.02 ± 0.13 | 0.657 ± 0.009
